Patent EP0107988A2, “Imidazo (1,2-a)quinolines, their salts, their preparation, their use as medicaments and compositions containing them” (ROUSSEL-UCLAF, priority 1982, dated 1984)

Molecular target: récepteurs des benzodiazépines
Assay: Benzodiazepine receptor affinity: [3H]flunitrazepam binding, modified method of Squires and Braestrup
Parameters: species or system rats
Conditions: concentration inhibiting by 50 % the specific binding of 0,6 nanomoles (3H) flunitrazépam; rat forebrain membrane preparations; read-out: CI50 (the source's name)
Text: L'affinité des composés pour les récepteurs des benzodiazépines a été évaluée en utilisant un radioligand/^3H/flunitra- zépam et la méthode de Squires et Braestrup (Nature, 1977, 266,732) modifiée.
Les valeurs ci-dessus sont les concentrations nanomolaires du produit testé qui inhibent dans une proportion de 50 % la liaison spécifique de 0,6 nanomoles (^3H) flunitrazépam tant de préparations de membranes de cerveaux antérieurs de rats (CI50) nanomoles.

In order of rising IC50:
1. CCc1ccc2c(c1)c(OC)c(C)c1nc(C(=O)c3ccccc3)cn12 [Exemple 8, (7-éthyl 5-méthoxy 4-méthylimidazo/1,2-a/quinoléin-2-yl)phénylméthanone]  7 nM
2. C=C(c1ccccc1)c1cn2c(cc(OC)c3cc(CC)ccc32)n1 [Exemple 7, Chlorhydratede 7-éthyl 5-méthoxy 2-(1-phénylvinyl) imidazo/1,2-a/quinoléine]  120 nM
3. CCc1ccc2c(c1)c(OC)c(CC)c1nc(C(=O)c3ccccc3)cn12 [Exemple 10, (4,7-diéthyl 5-méthoxyimidazo/1,2-a/quinoléin-2-yl) phénylméthanone]  135 nM
4. CCc1ccc2c(c1)c(C)cc1nc(C(=O)c3ccccc3)cn12 [Exemple 9]  250 nM
5. CCc1ccc2c(c1)c(OC(C)=O)cc1nc(C(=O)c3ccccc3)cn12 [Exemple 6, Acétatede 2-benzoyl 7-éthylimidazo/1,2-a/quinoléin-2-vle]  395 nM
6. CCc1ccc2c(c1)c(O)cc1nc(C(=O)c3ccccc3)cn12 [Exemple 4, 2-benzoyl 7-éthylimidazo/1,2-a/quinoléin-501]  430 nM
7. CCc1ccc2c(c1)c(OC)cc1nc(C(=O)c3ccccc3)c(Cl)n12 [Exemple 3, (1-chloro 7-éthyl 5-méthoxyimidazo/1,2-a/quinoléin-2-yl)phénylméthanone]  975 nM
8. CCc1ccc2c(c1)c(OC)cc1nc(C(=O)c3ccccc3)c(Br)n12 [Exemple 2, (1-bromo 7-éthyl 5-méthoxyimidazo/1,2-a/quinoléin-2-yl)phénylméthanone]  3200 nM
9. CCc1ccc2c(c1)c(OC)cc1nc(C(OC(C)=O)c3ccccc3)cn12 (stereo not shown) [Exemple 1]  5000 nM
10. CCc1ccc2c(c1)c(OC)cc1nc(C(C)(O)c3ccccc3)cn12 (stereo not shown) [Exemple 5, 1-(7-éthyl 5-méthoxyimidazo/1,2-a/quinoléin-2-yl) 1-phényléthanol]  8000 nM
